Measured values published in ChEMBL document CHEMBL3526058, “Investigating the enteroenteric recirculation of apixaban, a factor Xa inhibitor: administration of activated charcoal to bile duct-cannulated rats and dogs receiving an intravenous dose and use of drug transporter knockout rats” (Drug Metab Dispos, 2013).

Columns and labels:
Rattus norvegicus [1] = assay: Metabolism and biliary clearance in wild-type bile duct-cannulated Sprague-Dawley rat at 2 mg/kg, iv relative to total clearance; type: ADME, organism-based; design: dose 2 mg/kg, route intravenous; conditions: in vivo
[2] = Clearance in wild-type bile duct-cannulated Sprague-Dawley rat at 2 mg/kg, iv administered 0.125 hr post GF-120918 treatment; type: ADME, organism-based; design: dose 2 mg/kg, route intravenous; conditions: in vivo, with GF-120918
Rattus norvegicus [3] = assay: Intestinal clearance in BCRP-knockout Sprague-Dawley rat at 2 mg/kg, iv; type: ADME, organism-based; design: dose 2 mg/kg, route intravenous; conditions: in vivo
[4] = Drug recovery in bile of bile duct-cannulated BCRP-knockout Sprague-Dawley rat at 2 mg/kg, iv measured up to 24 hrs; type: ADME, organism-based; design: dose 2 mg/kg, route intravenous; conditions: read-out: Drug recovery
Rattus norvegicus [5] = assay: Metabolism and biliary clearance at 8 hrs in wild-type bile duct-cannulated Sprague-Dawley rat at 2 mg/kg, iv administered 0.125 hr post GF-120918 treatment; type: ADME, organism-based; design: dose 2 mg/kg, route intravenous; conditions: in vivo
[6] = Drug recovery in feces of bile duct-cannulated beagle dog at 1 mg/kg, iv administered as 5 mins infusion followed by activated charcoal administration 10 to 420 mins post compound measured up to 72 hrs; type: ADME, organism-based, Canis lupus familiaris; design: dose 1 mg/kg, route intravenous; conditions: in vivo
[7] = Drug recovery in feces of 30 mins activated charcoal pre-treated bile duct-cannulated Sprague-Dawley rat at 2 mg/kg, iv followed by activated charcoal administration 5 to 180 mins post compound dosing measured up to 48 hrs; type: ADME, organism-based; design: dose 2 mg/kg, route intravenous; conditions: read-out: Drug recovery
Rattus norvegicus [8] = assay: Intestinal clearance in wild-type 30 mins activated charcoal pre-treated bile duct-cannulated Sprague-Dawley rat at 2 mg/kg, iv followed by activated charcoal administration 5 to 180 mins post compound dosing; type: ADME, organism-based; design: dose 2 mg/kg, route intravenous; conditions: in vivo
[9] = Drug recovery in feces of beagle dog at 5 mg/kg, po measured up to 72 hrs; type: ADME, organism-based, Canis lupus familiaris; design: dose 5 mg/kg, route oral; conditions: read-out: Drug recovery
[10] = Drug recovery in urine of bile duct-cannulated Sprague-Dawley rat at 2 mg/kg, iv measured up to 24 hrs; type: ADME, organism-based; design: dose 2 mg/kg, route intravenous; conditions: read-out: Drug recovery
[11] = Half life in wild-type bile duct-cannulated Sprague-Dawley rat at 2 mg/kg, iv administered 0.125 hr post GF-120918 treatment; type: ADME, organism-based; design: dose 2 mg/kg, route intravenous; conditions: in vivo, with GF-120918
Rattus norvegicus [12] = assay: Metabolism and biliary clearance in P-gp-knockout Sprague-Dawley rat at 2 mg/kg, iv relative to total clearance; type: ADME, organism-based, Bile; design: dose 2 mg/kg, route intravenous; conditions: in vivo
[13] = Drug recovery in bile of bile duct-cannulated beagle dog at 1 mg/kg, iv administered as 5 mins infusion followed by activated charcoal administration 10 to 420 mins post compound measured up to 72 hrs; type: ADME, organism-based, Canis lupus familiaris; design: dose 1 mg/kg, route intravenous; conditions: read-out: Drug recovery
[14] = Drug recovery in feces of beagle dog at 1 mg/kg, iv administered as 5 mins infusion measured up to 72 hrs; type: ADME, organism-based, Canis lupus familiaris; design: dose 1 mg/kg, route intravenous; conditions: read-out: Drug recovery
Rattus norvegicus [15] = assay: Metabolism and biliary clearance in P-gp-knockout Sprague-Dawley rat at 2 mg/kg, iv; type: ADME, organism-based, Bile; design: dose 2 mg/kg, route intravenous; conditions: in vivo
Rattus norvegicus [16] = assay: Intestinal clearance in P-gp-knockout Sprague-Dawley rat at 2 mg/kg, iv relative to total clearance; type: ADME, organism-based; design: dose 2 mg/kg, route intravenous; conditions: in vivo
Canis familiaris [17] = assay: Intestinal clearance in bile duct-cannulated beagle dog at 1 mg/kg, iv administered as 5 mins infusion relative to total clearance; type: ADME, organism-based, Canis lupus familiaris; design: dose 1 mg/kg, route intravenous; conditions: in vivo
Canis familiaris [18] = assay: AUC (0 to infinity) in bile duct-cannulated beagle dog at 1 mg/kg, iv administered as 5 mins infusion; type: ADME, organism-based, Canis lupus familiaris; design: time infinity, dose 1 mg/kg, route intravenous; conditions: in vivo
[19] = Drug recovery in feces of bile duct-cannulated Sprague-Dawley rat at 2 mg/kg, iv measured up to 24 hrs; type: ADME, organism-based; design: dose 2 mg/kg, route intravenous; conditions: read-out: Drug recovery
[20] = AUC (0 to infinity) in wild-type 30 mins activated charcoal pre-treated bile duct-cannulated Sprague-Dawley rat at 2 mg/kg, iv followed by activated charcoal administration 5 to 180 mins post compound dosing; type: ADME, organism-based; design: time infinity, dose 2 mg/kg, route intravenous; conditions: in vivo
[21] = Cmax in wild-type bile duct-cannulated Sprague-Dawley rat at 2 mg/kg, iv administered 0.125 hr post GF-120918 treatment; type: ADME, organism-based; design: dose 2 mg/kg, route intravenous; conditions: in vivo, with GF-120918
Rattus norvegicus [22] = assay: Intestinal clearance in wild-type 30 mins activated charcoal pre-treated bile duct-cannulated Sprague-Dawley rat at 2 mg/kg, iv followed by activated charcoal administration 5 to 180 mins post compound dosing relative to total clearance; type: ADME, organism-based; design: dose 2 mg/kg, route intravenous; conditions: in vivo
[23] = AUC (0 to infinity) in wild-type bile duct-cannulated Sprague-Dawley rat at 2 mg/kg, iv administered 0.125 hr post GF-120918 treatment; type: ADME, organism-based; design: time infinity, dose 2 mg/kg, route intravenous; conditions: in vivo, with GF-120918
[24] = Renal clearance in wild-type bile duct-cannulated Sprague-Dawley rat at 2 mg/kg, iv administered 0.125 hr post GF-120918 treatment; type: ADME, organism-based, Kidney; design: dose 2 mg/kg, route intravenous; conditions: in vivo, with GF-120918
[25] = Renal clearance in bile duct-cannulated beagle dog at 1 mg/kg, iv administered as 5 mins infusion; type: ADME, organism-based, Canis lupus familiaris, Kidney; design: dose 1 mg/kg, route intravenous; conditions: in vivo

## COc1ccc(-n2nc(C(N)=O)c3c2[14C](=O)N(c2ccc(N4CCCCC4=O)cc2)CC3)cc1
Rattus norvegicus [1]
  CL: 28%
[2]
  clearance: 11.7 mL/min/kg
Rattus norvegicus [3]
  CL: 0.34 L/h/kg
[4]
  dose excreted at 24 h: 12.7%
Rattus norvegicus [5]
  CL: 0.25 L/h/kg
[6]
  Drug recovery: 62.7%
[7]
  dose excreted: 28.8%
Rattus norvegicus [8]
  CL: 0.55 L/h/kg
[9]
  dose excreted at 72 h: 73.7%
[10]
  dose excreted at 24 h: 49.5%
[11]
  half-life: 168 min
Rattus norvegicus [12]
  CL: 33%
[13]
  dose excreted: 13.1%
[14]
  dose excreted: 50.8%
Rattus norvegicus [15]
  CL: 0.29 L/h/kg
Rattus norvegicus [16]
  CL: 24%
Canis familiaris [17]
  CL: 43%
Canis familiaris [18]
  AUC: 9.3 µg·h/mL
[19]
  dose excreted at 24 h: 21.1%
[20]
  AUC(0-inf): 1020 ng·h/mL
[21]
  Cmax: 1970 ng/mL
Rattus norvegicus [22]
  CL: 28%
[23]
  AUC(0-inf): 2840 ng·h/mL
[24]
  CL renal at 0.125 h: 5.83 mL/min/kg
[25]
  CL renal at 5 min: 5.44 mL/h/kg
